Measurements published in paper PMC5931690, “SmSP2: A serine protease secreted by the blood fluke pathogen Schistosoma mansoni with anti-hemostatic properties” (PLoS Neglected Tropical Diseases, 2018).
*1 amine or outer side, *2 acyl side, *3 side chain or, on linkers, in order; H or OH if unused. Where a SMILES comes first, the peptide text is derived from it. CO = O=C([*:1])[*:2]

Target: T1, rSmSP2 (SmSP2, serine protease 2; recombinant protease domain) (Schistosoma mansoni, UniProt V5UMR3)
T1 construct: gene SP2; about 28 kDa on SDS-PAGE, active form
T1 sequence (V5UMR3 entry or part of it): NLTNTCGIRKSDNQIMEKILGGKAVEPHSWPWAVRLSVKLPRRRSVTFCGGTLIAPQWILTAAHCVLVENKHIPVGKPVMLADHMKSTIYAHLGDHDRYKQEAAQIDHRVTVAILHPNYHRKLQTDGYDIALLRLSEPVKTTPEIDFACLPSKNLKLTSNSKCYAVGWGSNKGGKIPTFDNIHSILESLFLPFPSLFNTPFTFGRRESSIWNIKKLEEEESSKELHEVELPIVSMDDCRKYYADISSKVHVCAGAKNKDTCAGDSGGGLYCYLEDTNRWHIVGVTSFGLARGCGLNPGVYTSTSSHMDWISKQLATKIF
Experiment: fluorogenic kinetic assay, residual P-F-R-AMC hydrolysis
Type: biochemical
Excerpt: fluorogenic kinetic assay, residual P-F-R-AMC hydrolysis on rSmSP2 (SmSP2, serine protease 2; recombinant protease domain)

`NCCc1ccc(S(=O)(=O)F)cc1` [Pefabloc SC] gave a percent inhibition (1000 µM, 50 μM P-F-R-AMC, 0.1 M Tris-HCl pH 8.0, 37 °C, 10 min preincubation, covalent) of 100%.
With `CC(=O)N[C@@H](CC(C)C)C(=O)N[C@@H](CC(C)C)C(=O)N[C@H](C=O)CCCNC(=N)N` [Leupeptin, N-acetyl-L-leucyl-L-leucyl-L-argininal] the inhibition at 20 µM (read-out: Inhibition (%)^c) was 100%.
`N=C(N)c1ccccc1` [Benzamidine] showed an inhibition at 1000 µM (read-out: Concentration) of 100%.
For `CC(C)[C@H](NC(=O)[C@H](CCCNC(=N)N)NC(=O)N[C@@H](Cc1ccccc1)C(=O)O)C(=O)N[C@H](C=O)CCCNC(=N)N` [Antipain] ({Phe-CO}-Arg-Val-Arg-aldehyde), the inhibition at 20 µM (read-out: Inhibition (%)^c) was 100%.
In the case of `O=c1oc(Cl)c(Cl)c2ccccc12`, the inhibition at 100 µM (read-out: Inhibition (%)^c) is reported as 71.4 ± 3.3%.
